# Key:
# [1] = target: T1, Human Aryl Hydrocarbon Receptor (AhR) (Homo sapiens, UniProt P35869); test: AHR antagonist reporter assay in human cell line (INDIGO AhR Reporter Assay System, kynurenic acid activated); assay type: cell-based; conditions: 200 μM kynurenic acid, 24 hours, luciferase; read-out: AhR Reporter Assay KA Antagonist Mode: IC50
# T1 construct: purchased INDIGO Bioscience #1B06001-32; host or cells: AhR Reporter Cell (kit's proprietary reporter cells)
# T1 sequence (P35869 11-848): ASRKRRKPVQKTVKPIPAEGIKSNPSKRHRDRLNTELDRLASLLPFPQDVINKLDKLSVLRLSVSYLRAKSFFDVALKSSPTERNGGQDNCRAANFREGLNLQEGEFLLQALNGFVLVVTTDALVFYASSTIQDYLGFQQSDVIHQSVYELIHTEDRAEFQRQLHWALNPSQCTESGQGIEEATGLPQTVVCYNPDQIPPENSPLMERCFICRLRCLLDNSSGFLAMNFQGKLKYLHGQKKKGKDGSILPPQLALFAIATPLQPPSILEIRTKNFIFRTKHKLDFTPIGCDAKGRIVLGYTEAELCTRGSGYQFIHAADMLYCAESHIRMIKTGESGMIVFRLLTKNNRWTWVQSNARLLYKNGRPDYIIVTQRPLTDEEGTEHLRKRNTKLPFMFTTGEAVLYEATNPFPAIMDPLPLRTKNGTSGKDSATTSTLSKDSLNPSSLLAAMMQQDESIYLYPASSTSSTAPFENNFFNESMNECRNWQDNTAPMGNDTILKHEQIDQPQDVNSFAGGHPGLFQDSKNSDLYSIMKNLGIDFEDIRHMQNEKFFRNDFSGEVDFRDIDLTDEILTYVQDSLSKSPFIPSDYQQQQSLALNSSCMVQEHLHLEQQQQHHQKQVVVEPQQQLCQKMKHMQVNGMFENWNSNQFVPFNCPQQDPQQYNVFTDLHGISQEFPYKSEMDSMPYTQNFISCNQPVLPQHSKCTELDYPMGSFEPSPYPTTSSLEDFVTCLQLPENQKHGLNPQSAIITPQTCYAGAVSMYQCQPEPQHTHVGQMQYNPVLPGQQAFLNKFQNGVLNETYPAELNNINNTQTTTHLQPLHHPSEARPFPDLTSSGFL
# Summary of the method: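 AhR reporter cells activated with 200 μM kynurenic acid and exposed to compound dilution series in duplicate for 24 h. Firefly luciferase readout, normalized to positive (literature antagonists or unactivated cells) and negative controls.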
# [2] = system: AHR-regulated gene CYP1A1 in human monocytic U937 cell line; test: AHR-regulated CYP1A1 expression in U937 cells (qPCR, kynurenic acid stimulated); assay type: cell-based; conditions: U-937, 200 μM KA, 16 hours, CYP1A1 vs GAPDH, read-out: Cyp ANATAG mode assay: IC50
# Experimental: To evaluate the AHR inhibitory activity of the test compounds, quantitative PCR analysis was used to determine expression level of the AHR-regulated gene CYP1A1 in a human monocytic U937 cell line upon stimulation of 200 μM kynurenic acid (KA) in the absence or presence of AHR inhibitor. U937 cells were seeded at a concentration of 5×10^5 cells/well in 200 μL of growth medium in 96-well cell culture microplates. CYP1A1 expression was induced with 200 μM KA (positive control) in the absence or presence of the test compounds for 16 hours. Human U937 cells were typically incubated with eight different concentrations of test compounds (typical dilution: […], 3.2 nM, 16 nM, 80 nM, 400 nM, 2 μM, 10 μM) and analyzed in duplicate on the same cell culture microplate. After stimulation, the media was removed, the cell RNA was isolated using RNeasy Mini Kit (Qiagen, 74104) and reverse-transcribed to cDNA using PrimeScript RT reagent Kit (Perfect Real Time) (TaKaRa, RR037A). Unstimulated cells were used as the negative control. Taqman probes for human CYP1A1 (Hs01054797_g1) and human GAPDH (Hs02786624_g1) were used to analyze fold expression of CYP1A1 of GAPDH.
# CT26 tumor cells = test: Anti-tumor activity in mice bearing CT26 tumors; assay type: in vivo, BALB/C mouse; conditions: CT26, female BALB/C; compound 10 mg/kg orally 16 days; anti PD-1 10 mg/kg i.p. twice every week; FIG. 1
# Experimental: Female BALB/C mouse was inoculated subcutaneously on the right flank with CT26 tumor cells (3×10^5) in 0.1 ml of RPMI 1640 Medium without serum for tumor development. Mice were randomized into 4 groups according to body weight on Day 4 after inoculation. The tumor-bearing mice were treated with Vehicle, anti PD-1 antibody (RMP1-14, BioXCell Catalog No. BP0146), a AHR antagonist compound as disclosed herein and a combination therapy of a AHR antagonist compound as disclosed herein and the anti PD-1 (or established treatment). The AHR antagonist compound was dosed orally at for example 10 mg/kg alone or in combination with established treatment for 16 days. When the established treatment was PD-1 antibody, the antibody was administered via intraperitoneal injection at 10 mg/kg, twice every week.
Compound,IC50 [1],IC50 [2],tumor volume compared with Vehicle group (CT26 tumor cells)
CNC(=O)C(C)(C)NC(=O)c1cc(-c2ccc(C(F)(F)F)cc2)nn(-c2cnn(C)c2)c1=O [Compound 173],< 100 nM,< 100 nM,–
Cc1nn(C)c2cc(-c3cc(C(=O)N[C@@H](C)CO)c(=O)n(-c4cnn(C)c4)n3)ccc12 [Compound 175],< 100 nM,100 to 400 nM,–
Cc1nn(C)c2cc(-c3cc(C(=O)N[C@@H](C)C(=O)N(C)C)c(=O)n(-c4cnn(C)c4)n3)ccc12 [Compound 176],< 100 nM,100 to 400 nM,–
C[C@H](NC(=O)c1cc(-c2ccc(-c3ccc(Cl)cc3)nc2)nn(-c2cnn(C)c2)c1=O)C(=O)N(C)C [Compound 177],< 100 nM,< 100 nM,–
CNC(=O)[C@H](C)NC(=O)c1cc(-c2ccc(-c3ccc(Cl)cc3)nc2)nn(-c2cnn(C)c2)c1=O [Compound 183],< 100 nM,< 100 nM,–
C[C@@H](CO)NC(=O)c1cc(-c2ccc(-c3ccccc3)nc2)nn(-c2cnn(C)c2)c1=O [Compound 185],< 100 nM,< 100 nM,–
C[C@@H](CO)NC(=O)c1cc(-c2cnc(-c3ccc(F)cc3)nc2)nn(-c2cnn(C)c2)c1=O [Compound 186],< 100 nM,< 100 nM,–
C[C@@H](CO)NC(=O)c1cc(-c2ccc(-c3cccc(F)c3)nc2)nn(-c2cnn(C)c2)c1=O [Compound 191],< 100 nM,< 100 nM,–
C[C@@H](CO)NC(=O)c1cc(-c2cnc(-c3ccccc3F)nc2)nn(-c2cnn(C)c2)c1=O [Compound 194],< 100 nM,< 100 nM,–
C[C@@H](CO)NC(=O)c1cc(-c2ccc(C3CCCCC3)cc2)nn(-c2cnn(C)c2)c1=O [Compound 198],< 100 nM,< 100 nM,–
C[C@@H](CO)NC(=O)c1cc(-c2cnc(-c3ccc(F)cc3)nc2)nc(-c2cnn(C)c2)n1 [Compound 199],< 100 nM,< 100 nM,–
C[C@@H](CO)n1cnc2c(-c3cnn(C)c3)nc(-c3cnc(-c4ccc(F)cc4)nc3)cc2c1=O [Compound 200],< 100 nM,< 100 nM,–
CCc1ccc(-c2cc(C(=O)N[C@@H](C)CO)c(=O)n(-c3cnn(C)c3)n2)cc1 [Compound 201],< 100 nM,< 100 nM,–
CCc1ccc(-c2cc(C(=O)N[C@@H](C)COC)c(=O)n(-c3cnn(C)c3)n2)cc1 [Compound 204],100 to 400 nM,< 100 nM,–

# Further lines, with some results ahead:
IC50 [1],IC50 [2],Compound,tumor volume compared with Vehicle group (CT26 tumor cells)
< 100 nM,< 100 nM,CNC(=O)[C@H](C)NC(=O)c1cc(-c2ccc(OC(F)(F)F)cc2)nn(-c2cnn(C)c2)c1=O [Compound 170],–
< 100 nM,< 100 nM,CNC(=O)[C@H](C)NC(=O)c1cc(-c2ccc(-c3ccc(Cl)cc3)cc2)nn(-c2cnn(C)c2)c1=O [Compound 171],–
< 100 nM,< 100 nM,CN1CCCC[C@H](NC(=O)c2cc(-c3ccc(C(F)(F)F)nc3)nn(-c3cnn(C)c3)c2=O)C1=O [Compound 172],–
< 100 nM,100 to 400 nM,CNC(=O)[C@H](C)NC(=O)c1cc(-c2cnc(-c3ccc(Cl)cc3)nc2)nn(-c2cnn(C)c2)c1=O [Compound 181],–
< 100 nM,< 100 nM,C[C@@H](CO)NC(=O)c1cc(-c2ccc(-c3ccccc3F)nc2)nn(-c2cnn(C)c2)c1=O [Compound 192],–
< 100 nM,< 100 nM,C[C@@H](CO)NC(=O)c1cc(-c2cnc(-c3cccc(F)c3)nc2)nn(-c2cnn(C)c2)c1=O [Compound 193],–
< 100 nM,< 100 nM,C[C@@H](CO)NC(=O)c1cc(-c2ccc(-c3ccc(F)nc3)nc2)nn(-c2cnn(C)c2)c1=O [Compound 195],–
100 to 400 nM,100 to 400 nM,C[C@@H](CO)NC(=O)c1cc(-c2ccc(C3CCOCC3)cc2)nn(-c2cnn(C)c2)c1=O [Compound 197],–
< 100 nM,< 100 nM,CC(C)c1ccc(-c2cc(C(=O)N[C@@H](C)CO)c(=O)n(-c3cnn(C)c3)n2)cc1 [Compound 202],–
< 100 nM,< 100 nM,C[C@@H](CO)NC(=O)c1cc(-c2ccc(C(C)(C)C)cc2)nn(-c2cnn(C)c2)c1=O [Compound 203],–
< 100 nM,< 100 nM,COC[C@H](C)NC(=O)c1cc(-c2ccc(C(C)C)cc2)nn(-c2cnn(C)c2)c1=O [Compound 206],–
> 400 nM,100 to 400 nM,C[C@@H](CO)NC(=O)c1cc(N2CCC(c3ccc(F)cc3)CC2)nn(-c2cnn(C)c2)c1=O [Compound 207],–
< 100 nM,< 100 nM,C[C@@H](CO)NC(=O)c1cc(N2CCN(c3ccc(F)cc3)CC2)nn(-c2cnn(C)c2)c1=O [Compound 208],–
< 100 nM,< 100 nM,C[C@@H](CO)NC(=O)c1cc(-c2ccc(-c3ccc(F)cc3)nc2)nn(-c2cnn(C)c2)c1=O [example 184],significantly reduced tumor volume

# From US20240351988A1, “ARYL HYDROCARBON RECEPTOR MODULATORS AND THEIR USE IN THE TREATMENT OF DISEASES AND DISORDERS” (Allianthera (Suzhou) Biopharmaceutical Co., Ltd., priority 2021, published 2024)
